Tests used:
[1] = Pharmacokinetic profile after oral gavage in mice; assay type: in vivo; details: male, CD1, mouse, single PO 100 mg/kg, plasma over 24 hours
Method: The pharmacokinetic profile of compound I-1 was determined after oral gavage of 100 mg/kg in male CD1 mice (n=3), using freshly prepared formulations. Approximately 0.025 mL of blood were collected from the dorsal metatarsal vein at 15 min, 30 min, and 1, 2, 4, 6, 8, and 24 hr post dosing. Plasma concentrations of the drug were analyzed by LC/MS/MS method.
Following a single PO (oral) injection in mice at 100 mg/kg, the concentration of compound I-1 was measured in the plasma over 24 hours. The half life was approximately 6 hours.

A498 = assay: Growth inhibition of cancer cell lines; assay type: cell-based; details: Homo sapiens; A498, kidney carcinoma; 50% inhibition of growth
Excerpt: (§1) We tested the ability of compound I-1 to inhibit the growth of 12 additional cell lines, derived from a variety of different types of human cancer.

A549 = assay: Growth inhibition of cancer cell lines; assay type: cell-based; details: Homo sapiens; A549, lung adenocarcinoma; 50% inhibition of growth
Excerpt: as §1

CFPAC-1 = assay: Growth inhibition of cancer cell lines; assay type: cell-based; details: Homo sapiens; CFPAC-1, pancreatic adenocarcinoma; 50% inhibition of growth
Excerpt: as §1

Colo205 = assay: Growth inhibition of cancer cell lines; assay type: cell-based; details: Homo sapiens, COLO 205; Colo205, Dukes' type D, colorectal adenocarcinoma; 50% inhibition of growth
Excerpt: as §1

DLD-1 = assay: Growth inhibition of cancer cell lines; assay type: cell-based; details: Homo sapiens; DLD-1, Dukes' type C, colorectal adenocarcinoma; 50% inhibition of growth
Excerpt: as §1

GIST T1 = assay: Growth inhibition of cancer cell lines; assay type: cell-based; details: Homo sapiens, GISTT1; GIST T1, gastrointestinal stromal tumor; 50% inhibition of growth
Excerpt: as §1

IGROV-1 = assay: Growth inhibition of cancer cell lines; assay type: cell-based; details: Homo sapiens; IGROV-1, ovarian adenocarcinoma; 50% inhibition of growth
Excerpt: as §1

MCF-7 = assay: Growth inhibition of cancer cell lines; assay type: cell-based; details: Homo sapiens, MCF7; MCF-7, breast cancer; 50% inhibition of growth
Excerpt: as §1

MiaPaca-2 = assay: Growth inhibition of cancer cell lines; assay type: cell-based; details: Homo sapiens, MIA PaCa-2; MiaPaca-2, pancreatic carcinoma; 50% inhibition of growth
Excerpt: as §1

NCI-H69 = assay: Growth inhibition of cancer cell lines; assay type: cell-based; details: Homo sapiens; NCI-H69, small cell lung cancer; 50% inhibition of growth
Excerpt: as §1

PC-3 = assay: Growth inhibition of cancer cell lines; assay type: cell-based; details: Homo sapiens; PC-3, prostate adenocarcinoma; 50% inhibition of growth
Excerpt: as §1

RL = assay: Growth inhibition of cancer cell lines; assay type: cell-based; details: Homo sapiens, non-Hodgkin's lymphoma, 50% inhibition of growth
Excerpt: as §1

UACC-62 = assay: Growth inhibition of cancer cell lines; assay type: cell-based; details: Homo sapiens; UACC-62, melanoma; 50% inhibition of growth
Excerpt: as §1

CCC(=O)N1CCc2cc(-c3ccc(C(=O)NCc4cccnc4)cc3)ccc21 [Compound I-1]
half-life [1]: ~360 min | IC50 (A498): > 10 µM | IC50 (A549): > 10 µM | IC50 (CFPAC-1): 8.24 µM | IC50 (Colo205): > 10 µM | IC50 (DLD-1): > 10 µM | IC50 (GIST T1): 980 nM | IC50 (IGROV-1): 4.54 µM | IC50 (MCF-7): 6 µM | IC50 (MiaPaca-2): 3.38 µM | IC50 (NCI-H69): 1500 nM | IC50 (PC-3): 5.52 µM | IC50 (RL): 130 nM | IC50 (UACC-62): > 10 µM

Source: patent US12522587B2, “Cancer treatments targeting cancer stem cells” (Remedy Plan, Inc., priority 2018, dated 2026)
